Literature values, collected in patent US9125860B2, “Phosphate free oral care compositions based on magnolia antibacterial agent” (Colgate-Palmolive Company, priority 2010, dated 2015).

Test system: S. mutans, F. nucleatum, V. parvula, A. naslundii, P. gingivitis
Conditions: representative oral bacteria; values not given
For `CCCCc1ccc(O)c(-c2cc(CCCC)ccc2O)c1` [butylmagnolol], the “bactericidal properties in MIC test, in words” value (“bactericidal properties” for short) is given as “demonstrated bactericidal properties”.
For `C=CCc1ccc(O)c(-c2ccc(O)c(CC=C)c2)c1` [honokiol], the “bactericidal properties” value is given as “demonstrated bactericidal properties”.
For `CC(C)c1ccc(O)c(-c2cc(C(C)C)ccc2O)c1` [isopropylmagnolol], the “bactericidal properties” value is listed as “demonstrated bactericidal properties”.
In the case of `C=CCc1ccc(O)c(-c2cc(CC=C)ccc2O)c1` [magnolol], the “bactericidal properties” value is listed as “demonstrated bactericidal properties”.
For `CCCc1ccc(O)c(-c2ccc(O)c(CCC)c2)c1` [tetrahydrohonokiol], the “bactericidal properties” value is given as “demonstrated bactericidal properties”.
In the case of `CCCc1ccc(O)c(-c2cc(CCC)ccc2O)c1` [tetrahydromagnolol], the “bactericidal properties” value is listed as “demonstrated bactericidal properties”.
In the case of butylhonokiol, the “bactericidal properties” value is listed as “demonstrated bactericidal properties”.
For isopropylhonokiol, the “bactericidal properties” value is given as “demonstrated bactericidal properties”.
For propylhonokiol, the “bactericidal properties” value is given as “demonstrated bactericidal properties”.
In the case of propylmagnolol, the “bactericidal properties” value is listed as “demonstrated bactericidal properties”.
